The target in the assay is T1, Zinc finger protein mex-5 (Caenorhabditis elegans, UniProt Q9XUB2).
T1 sequence (Q9XUB2 whole entry): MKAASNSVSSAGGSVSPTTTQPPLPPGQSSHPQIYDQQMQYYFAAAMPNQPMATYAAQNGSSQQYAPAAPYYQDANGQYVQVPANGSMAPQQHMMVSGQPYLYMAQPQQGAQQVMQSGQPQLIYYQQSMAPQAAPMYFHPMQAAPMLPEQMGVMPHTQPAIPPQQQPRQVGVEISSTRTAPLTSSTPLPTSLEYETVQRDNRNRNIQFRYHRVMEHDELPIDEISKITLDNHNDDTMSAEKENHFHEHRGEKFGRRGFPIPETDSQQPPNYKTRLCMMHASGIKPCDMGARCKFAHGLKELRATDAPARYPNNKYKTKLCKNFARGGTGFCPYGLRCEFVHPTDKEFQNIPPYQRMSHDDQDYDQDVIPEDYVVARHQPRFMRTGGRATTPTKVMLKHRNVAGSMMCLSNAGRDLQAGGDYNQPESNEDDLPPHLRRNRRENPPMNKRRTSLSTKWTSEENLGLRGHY
Briefly: potency of MEX-5 RNA-binding blockers – biochemical, C. elegans, fluorescence polarization, dose response (AID 1960). (In general: Fluorescence polarisation rises when a labelled molecule tumbles more slowly, as on binding a larger partner.)

A word on the EC50: it is the concentration at which the effect is half-maximal. A higher EC50 goes with lower potency in that assay. On to `COc1ccc(N2C(=O)C(=Cc3ccco3)C(=O)NC2=S)cc1` [MLS001204507], for which the EC50 worked out at 3.9 µM.

In the case of `CSc1nnc(N2C(=O)C(=O)C(C(=O)c3ccco3)C2c2cccc(Cl)c2)s1` (stereo unspecified) [2-(3-chlorophenyl)-3-(furan-2-carbonyl)-4-hydroxy-1-(5-methylsulfanyl-1,3,4-thiadiazol-2-yl)-2H-pyrrol-5-one], the EC50 was found to be 14.3 µM.

`CCn1nc(C)c(C=C2CCCC3=C2OC(=N)C(C#N)C3c2c(C)nn(CC)c2C)c1C` (stereo unspecified) [(8E)-2-amino-4-(1-ethyl-3,5-dimethyl-1H-pyrazol-4-yl)-8-[(1-ethyl-3,5-dimethyl-1H-pyrazol-4-yl)methylene]-5,6,7,8-tetrahydro-4H-chromene-3-carbonitrile] had an EC50 of 51.8 µM.

As to `COc1ccccc1OCC(=O)NN=Cc1c(O)ccc2ccccc12`, the EC50 amounted to 131 µM.

`CN1CCC2=C(C#N)C(=N)C(C#N)(C#N)C(c3ccncc3)C2C1` (stereo unspecified) [6-amino-2-methyl-8-(4-pyridyl)-1,3,8,8a-tetrahydroisoquinoline-5,7,7-tricarbonitrile] registered an EC50 of 7.73 µM.

`O=C1NC(=O)N(c2ccc(F)cc2)C(=O)C1=Cc1c[nH]c2ccccc12` [SMR000556295]: the EC50 was > 300 µM.

Regarding `C=CCSc1nnc(N2C(=O)C(=O)C(C(=O)c3ccco3)C2c2ccc(F)cc2)s1` (stereo unspecified) [1-[5-(allylthio)-1,3,4-thiadiazol-2-yl]-5-(4-fluorophenyl)-4-(2-furoyl)-3-hydroxy-3-pyrrolin-2-one], a half-maximal effect (EC50) was put at 87.6 µM.

In turn, `O=C(NN=CC1=CC(=O)C(=O)CC1)NN=CC1=CC(=O)C(=O)CC1` [1,3-bis[[(Z)-(3-hydroxy-4-oxocyclohexa-2,5-dien-1-ylidene)methyl]amino]urea] gave an EC50 of 4.86 µM.

`Cc1ccc(N=CCC(=O)c2sc(-c3ccccc3)nc2C)cc1` [(E)-1-(4-methyl-2-phenyl-1,3-thiazol-5-yl)-3-(4-toluidino)-2-propen-1-one]: the EC50 was > 300 µM.

For the compound `COc1ccc(C2C3=C(CCCC3=O)OC(=N)C2C#N)c(OC)c1OC` (stereo unspecified) [2-Amino-5-oxo-4-(2,3,4-trimethoxy-phenyl)-5,6,7,8-tetrahydro-4H-chromene-3-carbonitrile], the EC50 was > 300 µM.

In the case of `CCCCN1C(=O)/C(=C2/Sc3ccccc3N2C)SC1=Nc1nnc[nH]1` [SMR000282142], the EC50 amounted to 39.1 µM.

For `O=C1N=c2ccc(Br)cc2=C1NNc1nnn[nH]1` [5-bromanyl-3-[2-(2H-1,2,3,4-tetrazol-5-yl)hydrazinyl]indol-2-one], the EC50 turned out to be 5.18 µM.

On to `O=C1NC(=O)N(CCc2ccc(F)cc2)C(=O)C1=CNNC(=O)c1ccccc1` [N'-[(E)-[1-[2-(4-fluorophenyl)ethyl]-2,4,6-trioxo-1,3-diazinan-5-ylidene]methyl]benzohydrazide], for which the EC50 was > 300 µM.

For `CCOc1ccc(N2C(=O)C(=Cc3ccco3)C(=O)NC2=S)cc1` [MLS001205052], the EC50 came to 178 µM.

On to `Cc1ccc(C(=O)Cc2nc3cc(C)ccc3oc2=O)cc1` [(3Z)-3-[2-keto-2-(p-tolyl)ethylidene]-6-methyl-4H-1,4-benzoxazin-2-one], for which a half-maximal effect (EC50) was put at 1.64 µM.

`COc1ccc(C(=O)CC2=NCC3c4ccccc4CCN3C2=O)cc1` (stereo unspecified) [(3Z)-3-[2-(4-methoxyphenyl)-2-oxidanylidene-ethylidene]-2,6,7,11b-tetrahydro-1H-pyrazino[2,1-a]isoquinolin-4-one]: the EC50 was > 300 µM.

For the compound `CCN(CC)CCNC=C1C(=O)NC(=O)N(CCc2ccccc2)C1=O` [(5E)-5-[[2-(diethylamino)ethylamino]methylene]-1-phenethyl-barbituric acid], the EC50 was > 300 µM.

The compound `CCOc1cccc(C2C(C(=O)c3ccc(C)o3)C(=O)C(=O)N2c2nccs2)c1` (stereo unspecified) [2-(3-ethoxyphenyl)-3-(5-methylfuran-2-yl)carbonyl-4-oxidanyl-1-(1,3-thiazol-2-yl)-2H-pyrrol-5-one] came in with an EC50 of 1.27 µM.

Consider `O=CC(C=Nc1ccccn1)c1nc2ccccc2o1` (stereo unspecified) [2-Benzooxazol-2-yl-3-(pyridin-2-ylamino)-propenal], for which the EC50 was > 300 µM.

Take `COc1cc(C2C3CN(C)CCC3=C(C#N)C(=N)C2(C#N)C#N)ccc1OC(C)C` (stereo unspecified) [MLS000034945]: a half-maximal effect (EC50) was put at 31.3 µM.

On to `O=C(O)c1ccccc1N=NCc1c(Sc2nnnn2-c2ccccc2)nc2ccccn2c1=O` [MLS000775267], for which the EC50 turned out to be 116 µM.

On to `Fc1ccc(C2=Nc3ncnn3C(c3ccco3)C2)cc1` (stereo unspecified) [5-(4-fluorophenyl)-7-(2-furanyl)-1,7-dihydro-[1,2,4]triazolo[1,5-a]pyrimidine], for which the response was half-maximal at 12.8 µM (EC50).

Turning to `CCN(CC)c1ccc(C=NC(C#N)C(=N)C#N)cc1` (stereo unspecified) [SMR000023871], the EC50 was determined as 114 µM.

As for `COc1ccc(C2C3=C(CCCC3=O)OC(=N)C2C#N)cc1OC` (stereo unspecified) [2-amino-4-(3,4-dimethoxyphenyl)-5-keto-4,6,7,8-tetrahydrochromene-3-carbonitrile], the EC50 was > 300 µM.

In turn, `Oc1ccc2ccccc2c1CN=Nc1nnc(-c2ncc[nH]2)c2ccccc12` [SMR000151639] registered an EC50 of 2.45 µM.

On to `CCCCOc1c(Br)cc(CN=O)cc1OCC` [3-bromo-4-butoxy-5-ethoxy-benzaldoxime], for which the EC50 was > 300 µM.

For the compound `COc1ccc(OC)c(NC=C2C(=O)NC(=S)N(Cc3ccccc3)C2=O)c1`, the EC50 was > 300 µM.

Take `Cc1ccc(NC=C2SC(=O)c3ccccc32)c(C)c1` [(3Z)-3-[(2,4-dimethylanilino)methylene]isobenzothiophen-1-one]: the EC50 is > 300 µM.

With `COc1cc(C2C3=C(CC(C)(C)CC3=O)OC(=N)C2C#N)ccc1OCCN1CCOCC1` (stereo unspecified) [MLS000779948], the EC50 is > 300 µM.

In the case of `O=[N+]([O-])c1ccc(/N=N/c2ncc[nH]2)cc1` [N-(imidazol-2-ylideneamino)-4-nitroaniline], the EC50 amounted to 20.7 µM.

In the case of `COc1ccc(C2C3=C(CC(C)(C)CC3=O)OC(=N)C2C#N)c(OC)c1OC` (stereo unspecified) [2-amino-5-keto-7,7-dimethyl-4-(2,3,4-trimethoxyphenyl)-6,8-dihydro-4H-chromene-3-carbonitrile], the EC50 is > 300 µM.

As to `C=CCOc1ccc(C2C(C(=O)c3cccs3)C(=O)C(=O)N2c2nnc(C)s2)cc1` (stereo unspecified) [1-(5-methyl-1,3,4-thiadiazol-2-yl)-4-oxidanyl-2-(4-prop-2-enoxyphenyl)-3-thiophen-2-ylcarbonyl-2H-pyrrol-5-one], a half-maximal response (EC50) required 3.06 µM. This lies in the single-digit micromolar range.

With `COc1ccc(C2C3=C(CC(C)CC3=O)OC(=N)C2C#N)c(OC)c1OC` (stereo unspecified) [2-amino-5-keto-7-methyl-4-(2,3,4-trimethoxyphenyl)-4,6,7,8-tetrahydrochromene-3-carbonitrile], the EC50 was > 300 µM.

With `COC(=O)c1ccc(-n2c(C)cc(CN=Nc3nc(C)cc(=O)[nH]3)c2C)cc1` [SMR000364461], the EC50 was > 300 µM.

The compound `CCOc1cc(C2C(C(C)=O)=C(C)OC(=N)C2C#N)cc(Br)c1O` (stereo unspecified) [2-azanyl-4-(3-bromanyl-5-ethoxy-4-oxidanyl-phenyl)-5-ethanoyl-6-methyl-4H-pyran-3-carbonitrile] yielded an EC50 of 12.3 µM.

With `Cc1ccc(C2C(C(=O)c3ccco3)C(=O)C(=O)N2c2nnc(C)s2)cc1` (stereo unspecified) [3-(furan-2-carbonyl)-4-hydroxy-2-(4-methylphenyl)-1-(5-methyl-1,3,4-thiadiazol-2-yl)-2H-pyrrol-5-one], the EC50 was > 300 µM.

On to `C=CCOc1cccc(C2C(C(=O)c3cc4ccccc4o3)C(=O)C(=O)N2c2cc(C)on2)c1` (stereo unspecified) [3-(1-benzofuran-2-carbonyl)-4-hydroxy-1-(5-methyl-1,2-oxazol-3-yl)-2-(3-prop-2-enoxyphenyl)-2H-pyrrol-5-one], for which the EC50 came to 80.5 µM.

The compound `Cc1ccc2oc(=O)c(CC(=O)c3cccs3)nc2c1` [(3Z)-3-[2-keto-2-(2-thienyl)ethylidene]-6-methyl-4H-1,4-benzoxazin-2-one] gave an EC50 of 6.82 µM. This EC50 lies about 12-fold lower than the previous one.

With `CN(C)[C@@H]1C(=O)C(C(N)=O)C(=O)[C@@]2(O)C(=O)C3C(=O)c4c(O)cccc4[C@@](C)(O)C3C(O)C12` (stereo partly specified) [SMR000875333], the EC50 was determined as 20.5 µM.

For the compound `CCC(=CC=C[C@@H]1C=C[C@@H]2CCC[C@H]2[C@@H]1C(=O)c1ccc[nH]1)[C@@H]1O[C@@H]([C@@H](C)C(=O)O)CC[C@@H]1C` [2-(6-{1-ethyl-4-[4-(1H-pyrrol-2-ylcarbonyl)-2,3,3a,4,5,7a-hexahydro-1H-inden-5-yl]-1,3-butadienyl}-5-methyltetrahydro-2H-pyran-2-yl)propanoate], a half-maximal effect (EC50) was put at 1.16 µM.

For the compound `COc1cc(S(=O)(=O)Nc2ccc(C)cc2)ccc1NC=C1C(=O)N(C)C(=O)C(C#N)=C1C` [4-[[(Z)-(5-cyano-1,4-dimethyl-2,6-dioxopyridin-3-ylidene)methyl]amino]-3-methoxy-N-(4-methylphenyl)benzenesulfonamide], the EC50 turned out to be 23.9 µM.

With `O=C1NC(=O)N(CCc2ccccc2)C(=O)C1=CNNC(=O)c1ccncc1` [N'-[(E)-[2,4,6-trioxo-1-(2-phenylethyl)-1,3-diazinan-5-ylidene]methyl]-4-pyridinecarbohydrazide], the EC50 was > 300 µM.

`O=C1C=C(NNC(=O)c2sc3ccccc3c2Cl)CCC1` [3-chloranyl-N-[(3-oxidanylidenecyclohexylidene)amino]-1-benzothiophene-2-carboxamide] returned an EC50 of 20.5 µM. This counts as double-digit micromolar.

`Clc1ccc(C2=Nc3ncnn3C(c3ccco3)C2)cc1` (stereo unspecified) displayed an EC50 of 3.36 µM.

`COc1cccc(C2C3CN(C)CCC3=C(C#N)C(=N)C2(C#N)C#N)c1OC` (stereo unspecified) [6-Amino-8-(2,3-dimethoxy-phenyl)-2-methyl-2,3,8,8a-tetrahydro-1H-isoquinoline-5,7,7-tricarbonitrile] came in with an EC50 of 8.49 µM.

Regarding `O=C1N=c2ccccc2=C1NNc1ccc(F)cc1`, the EC50 is > 300 µM.

Source of the values: BindingDB's records for doi:10.7270/Q2D798VP (Broad Institute, 2009).
